Reference: ChEMBL document CHEMBL1158665, “Antipoliovirus structure-activity relationships of some aporphine alkaloids” (J Nat Prod, 1998)
Structures can show the parent of a compound that is named as a salt.

How the values were obtained:
[1] = Cytotoxicity against african green monkey Vero cells; format: cell-based; settings: chlorocebus sabaeus
[2] = Cytotoxicity against african green monkey Vero cells assessed as drug concentration at which no cellular alteration was microscopically detected; format: cell-based; settings: chlorocebus sabaeus, read-out: MTC
[3] = Selectivity index, ratio of CC50 for african green monkey Vero cells to ED50 for Poliovirus 2 Sabin 2; format: toxicity, cell-based
Poliovirus 2 [4] = assay: Antiviral activity against Poliovirus 2 Sabin 2 infected in african green monkey Vero cells at 0.001 multiplicity of infection assessed as inhibition of virus-induced cytopathogenicity; format: functional; settings: Enterovirus C, Sabin 2, Vero; read-out: ED50 (the source's name)
Poliovirus 2 [5] = assay: Antiviral activity against Poliovirus 2 Sabin 2 in african green monkey Vero cells assessed as log reduction in virus titers after at 0.1 multiple round of replication at their respective half of maximum tolerated concentration after 32 hrs; format: functional
Poliovirus 2 [6] = assay: Antiviral activity against Poliovirus 2 Sabin 2 in african green monkey Vero cells assessed as log reduction in virus titers after at 0.01 multiple round of replication at their respective half the maximum tolerated concentration after 32 hrs; format: functional
Poliovirus 2 [7] = assay: Antiviral activity against Poliovirus 2 Sabin 2 in african green monkey Vero cells assessed as log reduction in virus titers after at 0.001 multiple round of replication at their respective maximum tolerated concentration after 32 hrs; format: functional
Poliovirus 2 [8] = assay: Antiviral activity against Poliovirus 2 Sabin 2 in african green monkey Vero cells assessed as log reduction in virus titers after at 0.1 multiple round of replication at their respective maximum tolerated concentration after 32 hrs; format: functional
Poliovirus 2 [9] = assay: Antiviral activity against Poliovirus 2 Sabin 2 in african green monkey Vero cells assessed as log reduction in virus titers after at 0.001 multiple round of replication at their respective half the maximum tolerated concentration after 32 hrs; format: functional
Poliovirus 2 [10] = assay: Antiviral activity against Poliovirus 2 Sabin 2 in african green monkey Vero cells assessed as log reduction in virus titers after at 0.01 multiple round of replication at their respective maximum tolerated concentration after 32 hrs; format: functional

Row | Compound | CC50 [1] [µM] | MNTC [2] [µM] | selectivity ratio [3] | EC50 (Poliovirus 2 [4]) [µM] | Activity (Poliovirus 2 [5]) | Activity (Poliovirus 2 [6]) | Activity (Poliovirus 2 [7]) | Activity (Poliovirus 2 [8]) | Activity (Poliovirus 2 [9]) | Activity (Poliovirus 2 [10])
1 | COc1cccc2c1C(=O)c1nccc3cc4c(c-2c13)OCO4 [OXOSTEPHANINE] | 28 | 15 | – | – | – | – | – | – | – | –
2 | COc1cc2c(cc1O)C[C@@H]1NCCc3cc(O)c(OC)c-2c31 [NORBOLDINE] | 95 | 62 | 1.5 | 62 | – | – | – | – | – | –
3 | COc1cc2c3c(c1OC)-c1ccccc1C[C@H]3N(C)CC2.Cl [NUCIFERINE HYDROCHLORIDE] | 435 | 125 | 16.7 | 26 | 0.5 | 0.5 | 2 | 1 | 0.5 | 1
4 | O=C1c2ccccc2-c2c3c(cc4ccnc1c24)OCO3 [LIRIODENINE] | 48 | 31 | – | – | – | – | – | – | – | –
5 | COc1cc2ccnc3c2c(c1OC)-c1ccccc1C3=O [LYSICAMINE] | 500 | 250 | – | – | – | – | – | – | – | –
6 | COc1cc2c(cc1O)C[C@@H]1NCCc3cc4c(c-2c31)OCO4 [ACTINODAPHNINE] | 107 | 95 | – | – | – | – | – | – | – | –
7 | COc1cc2c(cc1OC)-c1c(OC)c(OC)cc3c1[C@H](C2)N(C(C)=O)CC3 | 342 | 250 | 6.8 | 50 | 0.5 | 0.5 | 1.5 | 1.5 | 1 | 1.5
8 | COc1cc2c(cc1O)C[C@H]1c3c(cc4c(c3-2)OCO4)CCN1C [CASSYTHICINE] | 47 | 31 | – | – | – | – | – | – | – | –
9 | CO[C@H]1c2ccccc2-c2c3c(cc4c2[C@@H]1NCC4)OCO3 [PACHYPODANTINE] | 25 | 20 | – | – | – | – | – | – | – | –
10 | COc1ccc2c(c1)[C@H](OC)[C@@H]1c3c(cc4c(c3-2)OCO4)CCN1C [OLIVERINE HCL] | 9 | 7 | – | – | – | – | – | – | – | –
11 | COc1c2c3c(c4c1OCO4)-c1ccccc1[C@H](O)[C@H]3N(C)CC2 [GUATTERINE] | 107 | 62 | 1.7 | 62 | – | – | – | – | – | –
12 | COc1ccc2c(c1)[C@H](O)[C@@H]1c3c(cc4c(c3-2)OCO4)CCN1C [OLIVERIDINE] | 7 | 5 | – | – | – | – | – | – | – | –
13 | COc1cc2c(cc1O)C[C@H]1c3c(cc(O)c(OC)c3-2)CCN1C [BOLDINE] | 250 | 125 | 2 | 125 | – | – | – | – | – | –
14 | COc1cc2c(cc1O)C[C@H]1c3c(cc(OC)c(O)c3-2)CCN1C.Cl [ISOBOLDINE HYDROCHLORIDE] | 217 | 125 | 14.5 | 15 | 1 | 1 | 2.5 | 1.5 | 1.5 | 1.5
15 | COc1cc2c(cc1OC)-c1c(OC)c(OC)cc3c1[C@H](C2)N(C)CC3.O=C(O)/C=C/C(=O)O [GLAUCINE FUMARATE] | 142 | 62 | 15.8 | 9 | 0.5 | 1 | 3 | 1 | 1.5 | 1.5
16 | COc1cc2c(cc1O)C[C@@H]1NCCc3cc(OC)c(OC)c-2c31 [LAUROTETANINE] | 165 | 62 | 5.3 | 31 | 0.5 | 1 | 1.5 | 1 | 1 | 1.5
17 | COc1cc2c(cc1O)C[C@H]1c3c(cc(OC)c(OC)c3-2)CCN1C | 250 | 125 | 16.7 | 15 | 0.5 | 1 | 2.5 | 1 | 1 | 1.5
18 | CO[C@H]1c2ccccc2-c2c3c(cc4c2[C@@H]1N(C)C[C@@H]4O)OCO3 [PACHYSTAUDINE] | 68 | 62 | 2.2 | 31 | – | – | 0.5 | 0 | – | 0.5
